Earlier results in PMC4061760 (Tetrahedron, 2009).

Tested on: Plk1 PBD
Conditions: 5-mer phosphopeptide

PLHSpT [Peptide 22]
interaction with the Plk1 PBD: specifically interacts with the Plk1 PBD with high affinity
